Data set [1] concerns faecal metabolites of gut bacteria. In words: Faecal metabolome analysis (GC-MS) in VAN-induced mice. The format is in vivo, C57BL/6 mice. As to the method: The extract of faecal samples (40 mg/ml methanol) was prepared as described in the previous method. The obtained dry extract was derivatized with methoxyamine-HCl and BSTFA (Sigma-Aldrich, USA), followed by incubation for 1 h at 37 °C. Subsequently, the supernatant (10 μl) obtained after centrifugation at 10,000×g for 12 min was injected into an Agilent GC-MS. The injector, transfer line, and ion source were set at 280 °C, 150 °C and 230 °C, respectively. At the beginning, we set the oven temperature to 60 °C, and then increased at 60 °C/min for 2 min, followed by an increase at the rate of 10 °C/min until reaching 300 °C.

Data set [2] has as its system VAN-induced C57BL/6J mouse model. Briefly: VAN-induced intestinal epithelial barrier dysfunction and gut inflammation model.
Procedure: This was succeeded by a daily oral administration of 50 mg/kg UsNFs of CUR for another 10 days, whereas the control group (CON) received standard rodent feed and water (Fig. 5A).
Data set [3] is described as follows: Distribution of DiR-loaded UsNFs in the GIT. The conditions noted are these: oral, 2 mg/kg DiR. The format is in vivo, C57BL/6J mice. Here is the method: 34 Distribution of UsNFs in the GIT.
37 of 2 mg/kg DiR. […] The stomachs and
41 FITC-dextran permeability assay .
Blood samples were collected at
44 shielded from light exposure. […] Standards (0.1–
48 subtraction and subjected to statistical analysis.
The mice were divided into three groups
61 sterilized drinking water.

For the compound `CN[C@H](CC(C)C)C(=O)N[C@H]1C(=O)N[C@@H](CC(N)=O)C(=O)N[C@H]2C(=O)N[C@H]3C(=O)N[C@H](C(=O)N[C@H](C(=O)O)c4cc(O)cc(O)c4-c4cc3ccc4O)[C@H](O)c3ccc(c(Cl)c3)Oc3cc2cc(c3O[C@@H]2O[C@H](CO)[C@@H](O)[C@H](O)[C@H]2O[C@H]2C[C@](C)(N)[C@H](O)[C@H](C)O2)Oc2ccc(cc2Cl)[C@H]1O` [VAN, vancomycin], in data set [1] (VAN-induced group (CON 1.1 %)), the “Content of butyrate in faeces” value is 0.14%. For the same compound, the “Content of propionate in faeces” value in data set [1] (VAN-induced group (CON 1.3 %)) turned out to be 0.16%. The “Content of acetate in faeces” value in data set [1] (VAN-induced group (CON 1.52 %)) came to 0.16%. In addition, in data set [1] (VAN-induced group (CON 2.2 %)), the “Content of azelaic acid in faeces” value stood at 0.34%. In addition, in data set [1] (VAN-induced group (CON 3.11 %)), the “Content of 9,12,15-octadecatrienoic acid in faeces” value came to 0.8%. The “Content of 4-aminovaleric acid in faeces” value in data set [1] (VAN-induced group (CON 12.7 %)) worked out at 1.4%. In addition, in data set [1] (VAN-induced group, printed from 23.7 % to 0.81 %), the “Content of hexanoic acid in faeces” value stood at 0.81%. In addition, the “Colon length increase over control group” value in data set [2] (VAN 20 mg/ml in drinking water, 10 days) is 21.9%. In addition, the MDA level increase entry in data set [2] (VAN-induced group) is given as “around 2.5 times”.

For `CCCCCCCCCCCCCCCCCCN1C(=CC=CC=CC=CC2=[N+](CCCCCCCCCCCCCCCCCC)c3ccccc3C2(C)C)C(C)(C)c2ccccc21` [Free DiR, 1,1′-dioctadecyl-3,3,3′,3′-tetramethylindotricarbocyanine], the “Residence in the GIT (NIR signal of DiR)” value in data set [3] is “quick removal via feces”.
